# Assay results taken from patent US8962674B2 (Tokyo Institute of Technology, priority 2006, dated 2015).
row,SMILES,melting point
1,"COc1ccc(/C=C/C(=O)CC(=O)/C=C/c2cn(Cc3ccccc3)c3ccccc23)cc1O [CU417, (1E,6E)-1-(1-benzyl-1H-indol-3-yl)-7-(3-hydroxy-4-methoxyphenyl)hepta-1,6-diene-3,5-dione]",194 to 199 °C
2,"COc1ccc(/C=C/C(=O)CC(=O)/C=C/c2cc(Cl)cc(Cl)c2O)cc1O [CU276, (1E,6E)-1-(3,5-dichloro-2-hydroxyphenyl)-7-(3-hydroxy-4-methoxyphenyl)hepta-1,6-diene-3,5-dione]",212 to 214 °C
3,"COc1cc(/C=C/C(=O)CC(=O)/C=C/c2ccc(O)cc2)cc(OC)c1OC [CU204, (1E,6E)-1-(4-hydroxyphenyl)-7-(3,4,5-trimethoxyphenyl)hepta-1,6-diene-3,5-dione]",101 to 105 °C
4,"O=C(/C=C/c1ccc(O)cc1)CC(=O)/C=C/c1cccc(-c2ccccc2)c1 [CU504, (1E,6E)-1-(biphenyl-3-yl)-7-(4-hydroxyphenyl)hepta-1,6-diene-3,5-dione]",176 to 182 °C
5,"COc1cc(/C=C/C(=O)CC(=O)/C=C/c2ccc(O)c([N+](=O)[O-])c2)ccc1O [CU040, (1E,6E)-1-(4-hydroxy-3-methoxyphenyl)-7-(4-hydroxy-3-nitrophenyl)hepta-1,6-diene-3,5-dione]",209 to 213 °C
6,"COc1cc(/C=C/C(=O)CC(=O)/C=C/c2ccc(OC)c(O)c2)cc(OC)c1 [CU101, (1E,6E)-1-(3,5-dimethoxyphenyl)-7-(3-hydroxy-4-methoxyphenyl)hepta-1,6-diene-3,5-dione]",187 to 193 °C
7,"CC(C)(C)OC(=O)N1CCc2ccc(/C=C/C(=O)CC(=O)/C=C/c3ccc(O)cc3)cc21 [CU419, (1E,6E)-1-[1-(tert-butoxycarbonyl)-indolin-6-yl]-7-(4-hydroxyphenyl)hepta-1,6-diene-3,5-dione]",111 to 118 °C
8,"COc1ccc(O)cc1CCC(=O)CC(=O)CCc1cc(O)ccc1OC [CU512, 1,7-bis(5-hydroxy-2-methoxyphenyl)heptane-3,5-dione]",163 to 169 °C
9,"COc1cc(/C=C/C(=O)CC(=O)/C=C/c2cccs2)ccc1O [CU016, (1E,6E)-1-(4-hydroxy-3-methoxyphenyl)-7-(thiophen-2-yl)hepta-1,6-diene-3,5-dione]",52 to 54 °C
10,"COc1cc(Br)c(/C=C/C(=O)CC(=O)/C=C/c2ccc(O)cc2)cc1O [CU543, (1E,6E)-1-(2-bromo-5-hydroxy-4-methoxyphenyl)-7-(4-hydroxyphenyl)hepta-1,6-diene-3,5-dione]",224 to 229 °C
11,"COCOc1ccc(OC)cc1/C=C/C(=O)CC(=O)/C=C/c1cc(OC)ccc1OCOC [CU447, (1E,6E)-1,7-bis[5-methoxy-2-(methoxymethoxy)phenyl]hepta-1,6-diene-3,5-dione]",140 to 143 °C
12,"COc1ccc(/C=C/C(=O)CC(=O)/C=C/c2cccnc2)cc1O [CU217, (1E,6E)-1-(3-hydroxy-4-methoxyphenyl)-7-(pyridin-3-yl)hepta-1,6-diene-3,5-dione]",174 to 175 °C
13,"COc1ccc(/C=C/C(=O)CC(=O)/C=C/c2ccc(N(C)C)cc2OC)cc1O [CU155, (1E,6E)-1-(4-dimethylamino-2-methoxyphenyl)-7-(3-hydroxy-4-methoxyphenyl)hepta-1,6-diene-3,5-dione]",108 to 113 °C
14,"O=C(/C=C/c1ccc(O)cc1)CC(=O)/C=C/c1cc(OCc2ccc(Cl)cc2Cl)ccc1[N+](=O)[O-] [CU493, (1E,6E)-1-[5-(2,4-dichlorobenzyloxy)-2-nitrophenyl]-7-(4-hydroxyphenyl)hepta-1,6-diene-3,5-dione]",157 to 161 °C
15,"O=C(/C=C/c1cccnc1N1CCOCC1)CC(=O)/C=C/c1cccnc1N1CCOCC1 [CU366, (1E,6E)-1,7-bis(2-morpholinopyridin-3-yl)hepta-1,6-diene-3,5-dione]",192 to 195 °C
16,"COc1ccc(/C=C/C(=O)CC(=O)/C=C/c2ccc(OC)c3ccccc23)cc1O [CU163, (1E,6E)-1-(3-hydroxy-4-methoxyphenyl)-7-(4-methoxynaphthalen-1-yl)hepta-1,6-diene-3,5-dione]",170 to 175 °C
17,"COc1ccc(/C=C/C(=O)CC(=O)/C=C/c2cc(OC)c(OC)c(OC)c2)cc1O [CU205, (1E,6E)-1-(3-hydroxy-4-methoxyphenyl)-7-(3,4,5-trimethoxyphenyl)hepta-1,6-diene-3,5-dione]",195 to 200 °C
18,"O=C(/C=C/c1ccc(O)cc1)CC(=O)/C=C/c1ccccc1CO [CU424, (1E,6E)-1-(2-hydroxymethylphenyl)-7-(4-hydroxyphenyl)hepta-1,6-diene-3,5-dione]",173 to 180 °C
19,"COc1cc(/C=C/C(=O)CC(=O)/C=C/c2cn(C)c3ccccc23)ccc1O [CU124, (1E,6E)-1-(4-hydroxy-3-methoxyphenyl)-7-(1-methyl-1H-indol-3-yl)hepta-1,6-diene-3,5-dione]",173 to 175 °C
20,"COc1ccc(/C=C/C(=O)CC(=O)/C=C/c2c(OC)ccc3ccccc23)cc1O [CU117, (1E,6E)-1-(3-hydroxy-4-methoxyphenyl)-7-(2-methoxynaphthalen-1-yl)hepta-1,6-diene-3,5-dione]",150 to 155 °C
21,"COc1cc(/C=C/C(=O)CC(=O)/C=C/c2ccc([N+](=O)[O-])c(OC)c2)ccc1O [CU051, (1E,6E)-1-(4-hydroxy-3-methoxyphenyl)-7-(3-methoxy-4-nitrophenyl)hepta-1,6-diene-3,5-dione]",157 to 163 °C
22,"COc1ccc(/C=C/C(=O)CC(=O)/C=C/c2ccc(O)c(Cl)c2)cc1O [CU044, (1E,6E)-1-(3-chloro-4-hydroxyphenyl)-7-(3-hydroxy-4-methoxyphenyl)hepta-1,6-diene-3,5-dione]",195 to 197 °C
23,"COc1cc(/C=C/C(=O)CC(=O)/C=C/c2ccc3[nH]ccc3c2)ccc1O [CU188, (1E,6E)-1-(4-hydroxy-3-methoxyphenyl)-7-(1H-indol-5-yl)hepta-1,6-diene-3,5-dione]",135 to 138 °C

# Second part, the compound after the results:
row,melting point,SMILES
1,82 to 86 °C,"CN(C)c1ccc(/C=C/C(=O)CC(=O)/C=C/c2ccc(O)cc2)c2ccccc12 [CU119, (1E,6E)-1-(4-dimethylaminonaphthalen-1-yl)-7-(4-hydroxyphenyl)hepta-1,6-diene-3,5-dione]"
2,177 to 203 °C,"O=C(/C=C/c1ccc(O)cc1)CC(=O)/C=C/c1cc(Br)ccc1F [CU466, (1E,6E)-1-(5-bromo-2-fluorophenyl)-7-(4-hydroxyphenyl)hepta-1,6-diene-3,5-dione]"
3,108 to 113 °C,"COc1ccc(/C=C/C(=O)CC(=O)/C=C/c2ccc(O)c(OC)c2)c(OC)c1 [CU073, (1E,6E)-1-(2,4-dimethoxyphenyl)-7-(4-hydroxy-3-methoxyphenyl)hepta-1,6-diene-3,5-dione]"
4,91 to 95 °C,"COc1ccc(/C=C/C(=O)CC(=O)/C=C/c2cc(OC)c(O)c(OC)c2)cc1O [CU136, (1E,6E)-1-(4-hydroxy-3,5-dimethoxyphenyl)-7-(3-hydroxy-4-methoxyphenyl)hepta-1,6-diene-3,5-dione]"
5,131 to 135 °C,"COc1cc(O)ccc1/C=C/C(=O)CC(=O)CCc1ccc(O)cc1 [CU517, (E)-1-(4-hydroxy-2-methoxyphenyl)-7-(4-hydroxyphenyl)hept-1-ene-3,5-dione]"
6,163 to 167 °C,"CS(=O)(=O)Oc1ccccc1/C=C/C(=O)CC(=O)/C=C/c1ccc(O)cc1 [CU483, (1E,6E)-1-(4-hydroxyphenyl)-7-[2-(methylsulfonyloxy)phenyl]hepta-1,6-diene-3,5-dione]"
7,61 to 66 °C,"COc1cc(/C=C/C(=O)CC(=O)/C=C/c2ccccc2OC)ccc1O [CU067, (1E,6E)-1-(4-hydroxy-3-methoxyphenyl)-7-(2-methoxyphenyl)hepta-1,6-diene-3,5-dione]"
8,165 to 169 °C,"COc1c(O)cccc1/C=C/C(=O)CC(=O)/C=C/c1ccc(O)cc1 [CU174, (1E,6E)-1-(4-hydroxyphenyl)-7-(3-hydroxy-2-methoxyphenyl)hepta-1,6-diene-3,5-dione]"
9,180 to 184 °C,"COc1cccc(OC)c1/C=C/C(=O)CC(=O)/C=C/c1c(OC)cccc1OC [CU390, (1E,6E)-1,7-bis(2,6-dimethoxyphenyl)hepta-1,6-diene-3,5-dione]"
10,94 to 99 °C,"COc1cccc(O)c1/C=C/C(=O)CC(=O)/C=C/c1ccc(O)cc1 [CU275, (1E,6E)-1-(2-hydroxy-6-methoxyphenyl)-7-(4-hydroxyphenyl)hepta-1,6-diene-3,5-dione]"
11,50 to 55 °C,"COc1cc(/C=C/C(=O)CC(=O)/C=C/c2ccc(O)c(OC)c2)cc(OC)c1 [CU100, (1E,6E)-1-(3,5-dimethoxyphenyl)-7-(4-hydroxy-3-methoxyphenyl)hepta-1,6-diene-3,5-dione]"
12,203 to 210 °C,"COc1cc(/C=C/C(=O)CC(=O)/C=C/c2ccc(N(C)C)cc2[N+](=O)[O-])ccc1O [CU192, (1E,6E)-1-(4-dimethylamino-2-nitrophenyl)-7-(4-hydroxy-3-methoxyphenyl)hepta-1,6-diene-3,5-dione]"
13,186 to 189 °C,"COc1cc(/C=C/C(=O)CC(=O)/C=C/c2ccc(O)c(F)c2)ccc1O [CU032, (1E,6E)-1-(3-fluoro-4-hydroxyphenyl)-7-(4-hydroxy-3-methoxyphenyl)hepta-1,6-diene-3,5-dione]"
14,167 to 172 °C,"Cc1ccc(Oc2ccc(/C=C/C(=O)CC(=O)/C=C/c3ccc(O)cc3)cn2)cc1 [CU333, (1E,6E)-1-(4-hydroxyphenyl)-7-[6-(4-methylphenoxy)pyridin-3-yl]hepta-1,6-diene-3,5-dione]"
15,156 to 160 °C,"O=C(/C=C/c1ccc(O)cc1)CC(=O)/C=C/c1cccc(Br)c1 [CU464, (1E,6E)-1-(3-bromophenyl)-7-(4-hydroxyphenyl)hepta-1,6-diene-3,5-dione]"
16,188 to 196 °C,"COc1ccc(O)cc1/C=C/C(=O)CC(=O)/C=C/c1cc(O)ccc1OC [CU380, (1E,6E)-1,7-bis(5-hydroxy-2-methoxyphenyl)hepta-1,6-diene-3,5-dione]"
17,207 to 210 °C,"COc1ccc(/C=C/C(=O)CC(=O)/C=C/c2ccc(O)cc2)cc1O [CU027, (1E,6E)-1-(3-hydroxy-4-methoxyphenyl)-7-(4-hydroxyphenyl)hepta-1,6-diene-3,5-dione]"
